We go through eight compounds from PubChem BioAssay (NCI).

Among the test systems are BT-549 breast; HCC-2998 colon; NCI/ADR-RES ovarian; OVCAR-3 ovarian; OVCAR-5 ovarian; RXF 393 renal; SNB-75 CNS; UO-31 renal.
What all share (experiment): DTP human tumour cell line panel, 48 h

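Each compound was tested at five concentrations against cells in 96-well plates for 48 hours. At the GI50, growth is halved. TGI is the concentration that stops growth completely.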

In general, GI50 refers to the concentration giving 50% growth inhibition. Usually TGI stands for the concentration giving total growth inhibition. `CCN(CC)CCOc1ccc(Nc2ncc3cc(-c4c(Cl)cccc4Cl)c(=O)n(CCOC)c3n2)cc1`: the GI50 was 0.533 µM in the assay on BT-549 breast; 1.25 µM with HCC-2998 colon; 0.415 µM in the assay with NCI/ADR-RES ovarian; 0.483 µM with OVCAR-3 ovarian; 0.137 µM in the assay on OVCAR-5 ovarian; 0.0184 µM in the assay with RXF 393 renal. Further, the GI50 is 0.00601 µM in the assay with SNB-75 CNS and 0.012 µM with UO-31 renal. In addition, the TGI worked out at 2.7 µM with BT-549 breast; 3.57 µM with HCC-2998 colon; 7.2 µM in the assay on NCI/ADR-RES ovarian; 2.96 µM in the assay on OVCAR-3 ovarian; 7.09 µM with OVCAR-5 ovarian; 0.133 µM with RXF 393 renal. Further, the TGI is 0.0454 µM in the assay with SNB-75 CNS and 0.179 µM in the assay on UO-31 renal.
Take `OCCCCC#Cc1ccccc1C#Cc1ccccc1F`: the GI50 was 21.7 µM with BT-549 breast; 17.8 µM with HCC-2998 colon; 21.1 µM with NCI/ADR-RES ovarian; 19.7 µM in the assay on OVCAR-3 ovarian; 16.2 µM in the assay with OVCAR-5 ovarian; 7.63 µM in the assay with RXF 393 renal. Further, the GI50 in the assay on SNB-75 CNS is > 100 µM; in the assay with UO-31 renal, 20.7 µM. For the same compound, the TGI with BT-549 breast is 52.7 µM; in the assay with HCC-2998 colon, 33 µM; in the assay with NCI/ADR-RES ovarian, 46.7 µM; with OVCAR-3 ovarian it was 43.6 µM; with OVCAR-5 ovarian, 33.3 µM; with RXF 393 renal it was 25.6 µM. Also, the TGI in the assay with SNB-75 CNS was > 100 µM; in the assay on UO-31 renal, 46.5 µM.
Consider `C=C1C(=O)O[C@H]2[C@H]1CC/C(CNC(=O)/C=C/c1cccc(OC)c1)=C\CC[C@@]1(C)O[C@@H]21`, for which the GI50 in the assay on BT-549 breast is 1.57 µM; in the assay with HCC-2998 colon, 1.83 µM; in the assay with NCI/ADR-RES ovarian, 3.79 µM; with OVCAR-3 ovarian, 1.1 µM; with OVCAR-5 ovarian, 2.05 µM; with RXF 393 renal it was 1.05 µM. The GI50 is 1.82 µM with SNB-75 CNS and 1.29 µM in the assay on UO-31 renal. The TGI in the assay on BT-549 breast came out at 3.66 µM; with HCC-2998 colon, 3.31 µM; with NCI/ADR-RES ovarian, 17.8 µM; with OVCAR-3 ovarian, 2.45 µM; in the assay with OVCAR-5 ovarian, 5.36 µM; with RXF 393 renal, 2.33 µM. Also, the TGI in the assay with SNB-75 CNS is 8.09 µM; with UO-31 renal, 2.61 µM.
Turning to `O=CN1N=C(c2ccc(Nc3ccnc4cc(Cl)ccc34)cc2)CC1c1ccccc1` (stereo not drawn), the GI50 with BT-549 breast is 3.81 µM; with HCC-2998 colon, 3.5 µM; in the assay on NCI/ADR-RES ovarian, 2.69 µM; in the assay with OVCAR-3 ovarian it was 2.78 µM; in the assay with OVCAR-5 ovarian, 19.8 µM; in the assay on RXF 393 renal, 2.2 µM. The results for the GI50 in the assay on SNB-75 CNS and with UO-31 renal were 5.03 µM and 3.81 µM, respectively. The TGI in the assay with BT-549 breast was 15.6 µM; with HCC-2998 colon, 29.5 µM; in the assay with NCI/ADR-RES ovarian, 59.8 µM; with OVCAR-3 ovarian, 7.71 µM; in the assay with OVCAR-5 ovarian it was > 100 µM; in the assay with RXF 393 renal it was 21.6 µM. The TGI in the assay with SNB-75 CNS and in the assay on UO-31 renal was > 100 µM throughout.
`O=c1[nH]cnc2c1nnn2C1OC(CO)C(O)C1O` (stereo not drawn): the GI50 is 7.77 µM in the assay with BT-549 breast; 2.65 µM with HCC-2998 colon; 0.835 µM in the assay on NCI/ADR-RES ovarian; 0.816 µM with OVCAR-3 ovarian; 26.6 µM with OVCAR-5 ovarian; 1.62 µM with RXF 393 renal. Besides, the GI50 in the assay on SNB-75 CNS is 2.43 µM; in the assay with UO-31 renal, 2.75 µM. Further, the concentration for total growth inhibition (TGI) was > 100 µM in the assay on BT-549 breast; 24.5 µM in the assay with HCC-2998 colon; > 31.4 µM in the assay on NCI/ADR-RES ovarian; 4.98 µM with OVCAR-3 ovarian; > 100 µM in the assay on OVCAR-5 ovarian; 32.2 µM in the assay with RXF 393 renal. Further, the TGI with SNB-75 CNS and with UO-31 renal was > 100 µM in each case.
As for `CCCCCCCCCCCCCCCC(=O)OCC1OC(n2cnc3c(=S)nc(N)[nH]c32)C(OC(=O)CCCCCCCCCCCCCCC)C1OC(=O)CCCCCCCCCCCCCCC` (stereo not drawn), the GI50 was > 50 µM in the assay on BT-549 breast; 6.88 µM in the assay on HCC-2998 colon; 4.46 µM with NCI/ADR-RES ovarian; 6.16 µM in the assay on OVCAR-3 ovarian; 3.4 µM in the assay with OVCAR-5 ovarian; 8.09 µM in the assay on RXF 393 renal. In addition, the GI50 in the assay with SNB-75 CNS is 4.38 µM; with UO-31 renal, 9.49 µM. The total growth inhibition concentration (TGI) in the assay on BT-549 breast is > 50 µM; with HCC-2998 colon it was > 50 µM; with NCI/ADR-RES ovarian, > 50 µM; in the assay on OVCAR-3 ovarian, > 47.3 µM; in the assay with OVCAR-5 ovarian it was > 39.3 µM; in the assay with RXF 393 renal, > 50 µM. Further, the TGI in the assay on SNB-75 CNS and with UO-31 renal was > 50 µM each time.
In the case of `CC/C=C\C/C=C\C[C@H](O)C/C=C1/C(=O)C=C[C@H]1C/C=C\CCC(=O)OC`, the GI50 was 2.78 µM in the assay with BT-549 breast; 1.6 µM in the assay on HCC-2998 colon; 3.74 µM in the assay with NCI/ADR-RES ovarian; 2.08 µM with OVCAR-3 ovarian; 5 µM in the assay on OVCAR-5 ovarian; 4.99 µM with RXF 393 renal. The GI50 in the assay with SNB-75 CNS is > 8.25 µM; in the assay on UO-31 renal, 7.58 µM. Also, the TGI in the assay with BT-549 breast was > 8.25 µM; with HCC-2998 colon it was 3.39 µM; in the assay on NCI/ADR-RES ovarian, > 8.25 µM; in the assay on OVCAR-3 ovarian it was 7.71 µM; in the assay with OVCAR-5 ovarian, > 8.25 µM; in the assay with RXF 393 renal, > 8.25 µM. In addition, the TGI in the assay on SNB-75 CNS and with UO-31 renal was > 8.25 µM in each case.
As for `N#Cc1cccc(C(=O)c2cnn(-c3ccc(F)cc3)c2N)c1`, the GI50 with BT-549 breast was > 25 µM; in the assay on HCC-2998 colon, > 25 µM; with NCI/ADR-RES ovarian, > 25 µM; in the assay with OVCAR-3 ovarian, > 25 µM; in the assay on OVCAR-5 ovarian, > 25 µM; in the assay on RXF 393 renal, > 23.4 µM. Besides, the GI50 in the assay on SNB-75 CNS is > 11.5 µM; in the assay with UO-31 renal it was > 25 µM. Further, the TGI with BT-549 breast, in the assay on HCC-2998 colon, in the assay on NCI/ADR-RES ovarian, in the assay on OVCAR-3 ovarian, with OVCAR-5 ovarian and in the assay on RXF 393 renal was > 25 µM each time. Moreover, the TGI with SNB-75 CNS is > 22.4 µM; in the assay on UO-31 renal it was > 25 µM.
